Measured values published in patent US7767665B2, “1,3-benzothiazinone derivatives and use thereof” (Takeda Pharmaceutical Company Limited, priority 2001, dated 2010).
Structures can show the parent of a compound that is named as a salt.

Question: Which melting point does the source give for `Cl.NCCc1ccnc(-c2nc(=O)c3ccccc3s2)c1` here?
Answer: 238 °C (dec.)

Question: For `Cc1cccc2c(=O)nc(-c3cccc(C(=O)NCCCCCCN)n3)sc12.Cl`, which melting point is on record?
Answer: 240 °C

Question: For `CCOP(=O)(Cc1cccc(-c2nc(=O)c3ccccc3s2)n1)OCC`, which melting point is on record?
Answer: 115.5 to 116.5 °C

Question: For `CCOP(=O)(CCc1cccc(-c2nc(=O)c3ccccc3s2)n1)OCC`, which melting point is on record?
Answer: 148.8 to 149.8 °C

Question: For `CCOP(=O)(CCc1ccnc(-c2nc(=O)c3ccccc3s2)c1)OCC`, which melting point is on record?
Answer: 102 to 103.2 °C

Question: For `CCOP(=O)(CCc1ccnc(-c2nc(=O)c3ccc(Cl)cc3s2)c1)OCC`, which melting point is on record?
Answer: 137.7 to 139.1 °C

Question: For `O=c1nc(-c2cccc(CN3CCC(O)(c4ccc(Cl)cc4)CC3)n2)sc2ccccc12`, which melting point is on record?
Answer: 151 to 153 °C

Question: Which melting point does the source give for `Cl.O=c1nc(-c2cc(C3CCCN3)ccn2)sc2ccccc12` (stereo not shown) here?
Answer: 219.4 to 221.4 °C

Question: For `NCCCCCCNC(=O)c1cccc(-c2nc(=O)c3ccccc3s2)n1` (as salt: hydrochloride) [Example 107, N-(6-Aminohexyl)-6-(4-oxo-4H-1,3-benzothiazin-2-yl)-2-pyridinecarboxamide hydrochloride], which melting point is on record?
Answer: 95.2 to 97.6 °C

Question: For `NCc1cccc(-c2nc(=O)c3ccccc3s2)n1` (as salt: trifluoroacetic acid salt) [Example 203, 2-[6-(Aminomethyl)-2-pyridyl]-4H-1,3-benzothiazine-4-one trifluoroacetic acid salt], which melting point is on record?
Answer: 184.5 to 186.5 °C

Question: Which melting point does the source give for `NCCc1cccc(-c2nc(=O)c3ccccc3s2)n1` (as salt: trifluoroacetic acid salt) [Example 220, 2-[6-(2-Aminoethyl)-2-pyridyl]-4H-1,3-benzothiazine-4-one trifluoroacetic acid salt] here?
Answer: 206.2 to 207.1 °C

Question: Which melting point does the source give for `NCCc1ccnc(-c2nc(=O)c3ccccc3s2)c1` (as salt: trifluoroacetic acid salt) [Example 221, 2-[4-(2-Aminoethyl)-2-pyridyl]-4H-1,3-benzothiazine-4-one trifluoroacetic acid salt] here?
Answer: 209 to 210.7 °C

Question: Which melting point does the source give for `NCCc1ccnc(-c2nc(=O)c3ccc(Cl)cc3s2)c1` (as salt: trifluoroacetic acid salt) [Example 223, 2-[4-(2-Aminoethyl)-2-pyridyl]-7-chloro-4H-1,3-benzothiazine-4-one trifluoroacetic acid salt] here?
Answer: 212 °C (dec.)

Question: With `O=c1nc(-c2cc(C3CCCN3)ccn2)sc2ccccc12` (stereo not shown) (as salt: trifluoroacetic acid salt) [Example 353, 2-[4-(2-Pyrrolidinyl)-2-pyridyl]-4H-1,3-benzothiazine-4-one trifluoroacetic acid salt] as the molecule, how does the melting point read?
Answer: 187.5 to 189 °C

Question: Which melting point does the source give for `O=c1nc(-c2ccco2)sc2ccccc12` [Example 1, 2-(2-Furyl)-4H-1,3-benzothiazine-4-one] here?
Answer: 170 to 171.5 °C

Question: For `O=c1nc(-c2cccs2)sc2ccccc12` [Example 2, 2-(2-Thienyl)-4H-1,3-benzothiazine-4-one], which melting point is on record?
Answer: 157.7 to 158.2 °C

Question: Which melting point does the source give for `O=c1nc(-c2ccc3ccccc3n2)sc2ccccc12` [Example 3, 2-(2-Quinolinyl)-4H-1,3-benzothiazine-4-one] here?
Answer: 262.7 to 263.4 °C

Question: Which melting point does the source give for `O=c1nc(-c2cnc3ccccc3c2)sc2ccccc12` [Example 4, 2-(3-Quinolinyl)-4H-1,3-benzothiazine-4-one] here?
Answer: 216 to 217 °C

Question: Which melting point does the source give for `CC(C)(C)OC(=O)CCc1cccc(-c2nc(=O)c3ccc(Cl)cc3s2)n1` [Example 5, tert-Butyl 3-[6-(7-chloro-4-oxo-4H-1,3-benzothiazin-2-yl)-2-pyridyl]propanoate] here?
Answer: 167.9 to 168.2 °C

Question: Which melting point does the source give for `O=C(O)CCc1cccc(-c2nc(=O)c3ccc(Cl)cc3s2)n1` [Example 6, 3-[6-(7-Chloro-4-oxo-4H-1,3-benzothiazin-2-yl)-2-pyridyl]propionic acid] here?
Answer: 224.4 to 224.7 °C

Question: With `Cc1cccnc1-c1nc(=O)c2ccccc2s1` [Example 8, 2-(3-Methyl-2-pyridyl)-4H-1,3-benzothiazine-4-one] as the molecule, how does the melting point read?
Answer: 149.9 to 151.6 °C

Question: For `O=c1nc(-c2ccccn2)sc2ccc(Cl)cc12` [Example 9, 6-Chloro-2-(2-pyridyl)-4H-1,3-benzothiazine-4-one], which melting point is on record?
Answer: 269.4 to 270.1 °C

Question: With `O=c1nc(-c2ccccn2)sc2ccc(Br)cc12` [Example 11, 6-Bromo-2-(2-pyridyl)-4H-1,3-benzothiazine-4-one] as the molecule, how does the melting point read?
Answer: 253 to 253.7 °C

Question: For `Cc1cccc2c(=O)nc(-c3ccccn3)sc12` [Example 12, 8-Methyl-2-(2-pyridyl)-4H-1,3-benzothiazine-4-one], which melting point is on record?
Answer: 197.8 to 198.5 °C

Question: Which melting point does the source give for `Cc1ccc2sc(-c3ccccn3)nc(=O)c2c1` [Example 13, 6-Methyl-2-(2-pyridyl)-4H-1,3-benzothiazine-4-one] here?
Answer: 219.8 to 220.8 °C

Question: With `COc1cc2sc(-c3ccccn3)nc(=O)c2cc1OC` [Example 14, 6,7-Dimethoxy-2-(2-pyridyl)-4H-1,3-benzothiazine-4-one] as the molecule, how does the melting point read?
Answer: 236.3 to 237.5 °C

Question: With `O=c1nc(-c2ccc[nH]2)sc2ccccc12` [Example 15, 2-(1H-Pyrrol-2-yl)-4H-1,3-benzothiazine-4-one] as the molecule, how does the melting point read?
Answer: 202.4 to 203.2 °C

Question: Which melting point does the source give for `Cc1ccc(-c2nc(=O)c3ccccc3s2)n1C` [Example 16, 2-(1,5-Dimethyl-1H-pyrrol-2-yl)-4H-1,3-benzothiazine-4-one] here?
Answer: 194.3 to 195.7 °C

Question: Which melting point does the source give for `Cc1cccc2sc(-c3ccccn3)nc(=O)c12` [Example 17, 5-Methyl-2-(2-pyridyl)-4H-1,3-benzothiazine-4-one] here?
Answer: 150.8 to 151.3 °C

Question: Which melting point does the source give for `COc1cccc2c(=O)nc(-c3ccccn3)sc12` [Example 18, 8-Methoxy-2-(2-pyridyl)-4H-1,3-benzothiazine-4-one] here?
Answer: 191.2 to 191.4 °C

Question: For `O=c1nc(-c2ccccn2)sc2ncccc12` [Example 22, 2-(2-Pyridyl)-4H-pyrido[3,2-e][1,3]thiazine-4-one], which melting point is on record?
Answer: 234.7 to 234.9 °C

Question: Which melting point does the source give for `Cc1cc(C)c2sc(-c3ccccn3)nc(=O)c2c1` [Example 24, 6,8-Dimethyl-2-(2-pyridyl)-4H-1,3-benzothiazine-4-one] here?
Answer: 245 to 245.8 °C

Question: With `COc1ccnc(-c2nc(=O)c3ccccc3s2)c1` [Example 25, 2-(4-Methoxy-2-pyridyl)-4H-1,3-benzothiazine-4-one] as the molecule, how does the melting point read?
Answer: 214.1 to 214.6 °C

Question: With `CCOC(=O)c1cccc(-c2nc(=O)c3ccccc3s2)n1` [Example 26, Ethyl 6-(4-oxo-4H-1,3-benzothiazin-2-yl)-2-pyridinecarboxylate] as the molecule, how does the melting point read?
Answer: 170 to 172.2 °C

Question: For `CCOC(=O)c1ccnc(-c2nc(=O)c3ccccc3s2)c1` [Example 27, Ethyl 2-(4-oxo-4H-1,3-benzothiazin-2-yl)isonicotinate], which melting point is on record?
Answer: 235.9 to 236.7 °C

Question: With `CCCNc1ccc(-c2nc(=O)c3ccccc3s2)cn1` [Example 31, 2-[6-(Propylamino)-3-pyridyl]-4H-1,3-benzothiazine-4-one] as the molecule, how does the melting point read?
Answer: 210.1 to 210.6 °C

Question: For `O=c1nc(-c2ccc(NCc3ccccc3)nc2)sc2ccccc12` [Example 32, 2-[6-(Benzylamino)-3-pyridyl]-4H-1,3-benzothiazine-4-one], which melting point is on record?
Answer: 194.3 to 196.2 °C

Question: With `O=c1nc(-c2ccc(N3CCCC3)nc2)sc2ccccc12` [Example 33, 2-[6-(1-Pyrrolidinyl)-3-pyridyl]-4H-1,3-benzothiazine-4-one] as the molecule, how does the melting point read?
Answer: 221 to 223.1 °C

Question: With `O=c1nc(-c2ccc(N3CCCCC3)nc2)sc2ccccc12` [Example 34, 2-[6-(1-Piperidino)-3-pyridyl]-4H-1,3-benzothiazine-4-one] as the molecule, how does the melting point read?
Answer: 191.2 to 191.7 °C

Question: Which melting point does the source give for `O=c1nc(-c2ccc(N3CCOCC3)nc2)sc2ccccc12` [Example 35, 2-[6-(4-Morpholino)-3-pyridyl]-4H-1,3-benzothiazine-4-one] here?
Answer: 232.6 to 234.4 °C

Question: With `O=c1nc(-c2ccc(Sc3ccc(Cl)cc3)nc2)sc2ccccc12` [Example 36, 2-{6-[(4-Chlorophenyl)thio]-3-pyridyl}-4H-1,3-benzothiazine-4-one] as the molecule, how does the melting point read?
Answer: 221.5 to 222 °C

Question: With `O=c1nc(-c2cccc(Oc3ccccc3)n2)sc2ccccc12` [Example 41, 2-(6-Phenoxy-2-pyridyl)-4H-1,3-benzothiazine-4-one] as the molecule, how does the melting point read?
Answer: 160.8 to 161.3 °C

Question: For `O=c1nc(-c2cccc(N3CCCCC3)n2)sc2ccccc12` [Example 42, 2-[6-(1-Piperidyl)-2-pyridyl]-4H-1,3-benzothiazine-4-one], which melting point is on record?
Answer: 178.7 °C (dec.)

Question: Which melting point does the source give for `C[S+]([O-])c1cccc(-c2nc(=O)c3ccccc3s2)n1` (stereo not shown) [Example 44, 2-(6-Methylsulfinyl-2-pyridyl)-4H-1,3-benzothiazine-4-one] here?
Answer: 256.5 °C (dec.)

Question: For `CS(=O)(=O)c1cccc(-c2nc(=O)c3ccccc3s2)n1` [Example 45, 2-(6-Methylsulfonyl-2-pyridyl)-4H-1,3-benzothiazine-4-one], which melting point is on record?
Answer: 238.2 to 239.5 °C (dec.)

Question: For `Cc1ccc(Sc2cccc(-c3nc(=O)c4ccccc4s3)n2)cc1` [Example 46, 2-{6-[(4-methylphenyl)thio]-2-pyridyl}-4H-1,3-benzothiazine-4-one], which melting point is on record?
Answer: 176.9 to 178.4 °C

Question: Which melting point does the source give for `CCCSc1cccc(-c2nc(=O)c3ccccc3s2)n1` [Example 59, 2-(6-Propylthio-2-pyridyl)-4H-1,3-benzothiazine-4-one] here?
Answer: 124.5 to 125.1 °C

Question: With `O=c1nc(-c2cccc(N3CCN(c4ccccc4)CC3)n2)sc2ccccc12` [Example 62, 2-[6-(4-Phenyl-1-piperazinyl)-2-pyridyl]-4H-1,3-benzothiazine-4-one] as the molecule, how does the melting point read?
Answer: 245.8 °C (dec.)

Question: Which melting point does the source give for `CC(C)(C)OC(=O)CCOCCCc1cccc(-c2nc(=O)c3ccccc3s2)n1` [Example 66, tert-Butyl 3-{3-[6-(4-oxo-4H-1,3-benzothiazin-2-yl)-2-pyridyl]propoxy}propanoate] here?
Answer: 71 to 71.9 °C

Question: Which melting point does the source give for `O=c1nc(-c2ccnc(OCc3ccccc3)c2)sc2ccccc12` [Example 69, 2-(2-Benzyloxy-4-pyridyl)-4H-1,3-benzothiazine-4-one] here?
Answer: 116 to 116.5 °C

Question: With `CN(Cc1ccccc1)c1cc(-c2nc(=O)c3ccccc3s2)ccn1` [Example 71, 2-[2-(N-Benzyl-N-methylamino)-4-pyridyl]-4H-1,3-benzothiazine-4-one] as the molecule, how does the melting point read?
Answer: 145.9 to 146.6 °C

Question: With `CCCCCCNc1cc(-c2nc(=O)c3ccccc3s2)ccn1` [Example 72, 2-[2-(Hexylamino)-4-pyridyl]-4H-1,3-benzothiazine-4-one] as the molecule, how does the melting point read?
Answer: 133.8 to 134.6 °C
